Laboratory results from patent USRE42890E1, “Furazanobenzimidazoles” (Basilea Pharmaceutica AG, priority 2003, dated 2011).
Where two headings read alike, the source gives them in different places.

Experiments:
Jily = experiment: MTS proliferation assay, Jily; format: cell-based; settings: 72 h incubation, read-out: MTS proliferation assay IC 50 Jily
Summary of the method: (§1)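 Proliferation is followed by MTS conversion, measured as absorbance at 492 nm. Cells are exposed for 72 h to four fixed compound concentrations (10 μM down to 0.3 μM) under 37° C, 7.5% CO2 culture conditions.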

MRC5 = experiment: MTS proliferation assay, MRC5; format: cell-based; settings: MRC5, 72 h incubation, read-out: MTS proliferation assay IC 50 MRC5
Summary of the method: as §1

Jurkat = experiment: MTS proliferation assay, Jurkat; format: cell-based, human; settings: 72 h incubation, read-out: MTS proliferation assay IC 50 Jurkat
Summary of the method: (§2)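 A 72 h exposure to compound (final 0.3–10 μM, four levels) was followed by 3 h MTS incubation and an A492 read.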

[1] = system: adherent cells or suspension cells; experiment: Hoechst 33342 nuclear staining (fraction of apoptotic nuclei); format: cell-based; parameters: key: 0 relating to no activity; 1 relating to weak activity comprising less than 70% of the cells; score 2 relating to strong activity comprising more than 70% of the cells
HT1080 = experiment: MTS proliferation assay, HT1080; format: cell-based, human; settings: HT1080, 72 h incubation, read-out: MTS proliferation assay IC 50 HT1080
Summary of the method: as §2

HeLa = experiment: MTS proliferation assay, HeLa; format: cell-based, human; settings: 72 h incubation, read-out: MTS proliferation assay IC 50 HeLa
Summary of the method: as §2

| SMILES | IC50 (Jily) [nM] | IC50 (MRC5) [nM] | IC50 (Jurkat) [nM] | Hoechst 33342 nuclear staining score ([1]; H460, conc 0.01 μm) | Hoechst 33342 nuclear staining score ([1]; H460, conc 0.1 μm) | Hoechst 33342 nuclear staining score ([1]; H460, conc 1 μm) | Hoechst 33342 nuclear staining score ([1]; HeLa, conc 0.01 μm) | Hoechst 33342 nuclear staining score ([1]; HeLa, conc 0.1 μm) | Hoechst 33342 nuclear staining score ([1]; HeLa, conc 1 μm) | Hoechst 33342 nuclear staining score ([1]; Jily, conc 0.01 μm) | Hoechst 33342 nuclear staining score ([1]; Jily, conc 0.1 μm) | Hoechst 33342 nuclear staining score ([1]; Jily, conc 1 μm) | Hoechst 33342 nuclear staining score ([1]; Jurkat, conc 0.01 μm) | Hoechst 33342 nuclear staining score ([1]; Jurkat, conc 0.1 μm) | Hoechst 33342 nuclear staining score ([1]; Jurkat, conc 1 μm) | Hoechst 33342 nuclear staining score ([1]; MRC5, conc 0.01 μm) | Hoechst 33342 nuclear staining score ([1]; MRC5, conc 0.1 μm) | Hoechst 33342 nuclear staining score ([1]; MRC5, conc 1 μm) | Hoechst 33342 nuclear staining score ([1]; PBLs, conc 0.01 μm) | Hoechst 33342 nuclear staining score ([1]; PBLs, conc 0.1 μm) | also measured |
| --- | --- | --- | --- | --- | --- | --- | --- | --- | --- | --- | --- | --- | --- | --- | --- | --- | --- | --- | --- | --- | --- |
| Nc1nonc1-c1nc2ccccc2n1CC(=O)c1ccc(Cl)nc1 [Example 70] | < 10 | < 10 | < 10 | 1 (1 relating to weak activity comprising less than 70% of the cells) | 2 (score 2 relating to strong activity comprising more than 70% of the cells) | 2 (score 2 relating to strong activity comprising more than 70% of the cells) | 0 | 2 (score 2 relating to strong activity comprising more than 70% of the cells) | 2 (score 2 relating to strong activity comprising more than 70% of the cells) | 2 (score 2 relating to strong activity comprising more than 70% of the cells) | 2 (score 2 relating to strong activity comprising more than 70% of the cells) | 2 (score 2 relating to strong activity comprising more than 70% of the cells) | 2 (score 2 relating to strong activity comprising more than 70% of the cells) | 2 (score 2 relating to strong activity comprising more than 70% of the cells) | 2 (score 2 relating to strong activity comprising more than 70% of the cells) | 1 (1 relating to weak activity comprising less than 70% of the cells) | 2 (score 2 relating to strong activity comprising more than 70% of the cells) | 2 (score 2 relating to strong activity comprising more than 70% of the cells) | 0 | 0 | Hoechst 33342 nuclear staining score ([1]; PBLs, conc 1 μm): 0; IC50 (HT1080): < 10 nM; IC50 (HeLa): < 10 nM |
| CC(C)n1c(-c2nonc2N)nc2ccccc21 [A, reference compound] | > 1000 | > 1000 | > 1000 |  |  |  |  |  |  |  |  |  |  |  |  |  |  |  |  |  | Hoechst 33342 nuclear staining score ([1]; H460, conc 3 μm): 0; Hoechst 33342 nuclear staining score ([1]; H460, conc 10 μm): 0; Hoechst 33342 nuclear staining score ([1]; H460, conc 30 μm): 0; Hoechst 33342 nuclear staining score ([1]; HeLa, conc 3 μm): 0; Hoechst 33342 nuclear staining score ([1]; HeLa, conc 10 μm): 0; Hoechst 33342 nuclear staining score ([1]; HeLa, conc 30 μm): 0; Hoechst 33342 nuclear staining score ([1]; Jily, conc 3 μm): 0; Hoechst 33342 nuclear staining score ([1]; Jily, conc 10 μm): 0; Hoechst 33342 nuclear staining score ([1]; Jily, conc 30 μm): 0; Hoechst 33342 nuclear staining score ([1]; Jurkat, conc 3 μm): 0; Hoechst 33342 nuclear staining score ([1]; Jurkat, conc 10 μm): 0; Hoechst 33342 nuclear staining score ([1]; Jurkat, conc 30 μm): 0; Hoechst 33342 nuclear staining score ([1]; MRC5, conc 3 μm): 0; Hoechst 33342 nuclear staining score ([1]; MRC5, conc 10 μm): 0; Hoechst 33342 nuclear staining score ([1]; MRC5, conc 30 μm): 0; Hoechst 33342 nuclear staining score ([1]; PBLs, conc 3 μm): 0; Hoechst 33342 nuclear staining score ([1]; PBLs, conc 10 μm): 0; Hoechst 33342 nuclear staining score ([1]; PBLs, conc 30 μm): 0; IC50 (HT1080): > 1000 nM; IC50 (HeLa): > 1000 nM |
| COC(=O)CCNc1nonc1-c1nc2ccccc2n1CC(=O)c1ccc(Cl)cc1 [Example 9, 4-[1-(4-Chlorophenacyl)-1H-benzimidazol-2-yl]-furazan-3-yl-N-(2-methoxycarbonylethyl)-amine] | 100 to 1000 |  |  | 0 | 0 | 0 | 0 | 0 | 2 (score 2 relating to strong activity comprising more than 70% of the cells) | 0 | 0 | 2 (score 2 relating to strong activity comprising more than 70% of the cells) | 0 | 0 | 2 (score 2 relating to strong activity comprising more than 70% of the cells) | 0 | 0 | 2 (score 2 relating to strong activity comprising more than 70% of the cells) | 0 | 0 | IC50 (MRC5; Homo sapiens): 100 to 1000 nM; IC50 (Jurkat; Homo sapiens): 100 to 1000 nM; Hoechst 33342 nuclear staining score ([1]; PBLs, conc 1 μm): 2 (score 2 relating to strong activity comprising more than 70% of the cells); IC50 (HT1080; Homo sapiens, HT-1080): 100 to 1000 nM; IC50 (HeLa; Homo sapiens): 100 to 1000 nM |
| Nc1nonc1-c1nc2ccccc2n1COc1ccc(C=O)cc1 [Example 96] | 100 to 1000 | 100 to 1000 | 100 to 1000 | 0 | 0 | 1 (1 relating to weak activity comprising less than 70% of the cells) | 0 | 0 | 2 (score 2 relating to strong activity comprising more than 70% of the cells) | 0 | 0 | 2 (score 2 relating to strong activity comprising more than 70% of the cells) | 0 | 0 | 2 (score 2 relating to strong activity comprising more than 70% of the cells) | 0 | 0 | 0 | 0 | 0 | Hoechst 33342 nuclear staining score ([1]; PBLs, conc 1 μm): 0; IC50 (HT1080): 100 to 1000 nM; IC50 (HeLa): 100 to 1000 nM |
| COc1ccc(C(=O)Cn2c(-c3nonc3NCCC#N)nc3ccccc32)cc1 [Example 48] | 10 to 100 | 10 to 100 | < 10 | 0 | 0 | 2 (score 2 relating to strong activity comprising more than 70% of the cells) | 0 | 2 (score 2 relating to strong activity comprising more than 70% of the cells) | 2 (score 2 relating to strong activity comprising more than 70% of the cells) | 0 | 2 (score 2 relating to strong activity comprising more than 70% of the cells) | 2 (score 2 relating to strong activity comprising more than 70% of the cells) | 0 | 2 (score 2 relating to strong activity comprising more than 70% of the cells) | 2 (score 2 relating to strong activity comprising more than 70% of the cells) | 0 | 2 (score 2 relating to strong activity comprising more than 70% of the cells) | 2 (score 2 relating to strong activity comprising more than 70% of the cells) | 0 | 0 | Hoechst 33342 nuclear staining score ([1]; PBLs, conc 1 μm): 0; IC50 (HT1080): 10 to 100 nM; IC50 (HeLa): 10 to 100 nM |
